Measured values as given in patent publication US20250236589A1, “THERAPEUTIC PHENETHYLAMINE COMPOSITIONS AND METHODS OF USE” (Cybin IRL Limited, priority 2022, published 2025).
Like-named read-outs stand apart in the source and are kept apart here.

Experiments:
human 5-HT2B receptor = human 5-HT2B receptor (Homo sapiens (Human), UniProt P41595); assay: 5-HT2B radioligand binding ([125I](±)DOI)
Experimental: In another series of 5-HT1A,2A,2B radioligand competition binding assays, the conditions were as follows: For 5-HT1A assays, cell membrane homogenates (˜30 μg protein) derived from HEK-293 cells expressing human 5-HT1ARs were incubated with 0.5 nM [^3H]8-hydroxy-2-(di-n-propylamino)tetralin ([^3H]8-OH-DPAT) for 60 min at room temperature in the presence or absence of the test article. Non-specific binding was determined in the presence of 10 μM 8-OH-DPAT. Samples were then analyzed as described above, with only immaterial differences. […] Samples were then analyzed as described above.

Muscarinic M5 (h) = Muscarinic M5 (h) (Homo sapiens (Human), UniProt P08912); assay: Off-target screen, radioligand displacement at 10 μM; format: binding; conditions: antagonist radioligand
5-HT1B (h) = 5-HT1B (h) (Homo sapiens (Human), UniProt P28222); assay: as above; format: binding; conditions: antagonist radioligand
Muscarinic M3 (h) = Muscarinic M3 (h) (Homo sapiens (Human), UniProt P20309); assay: as above; format: binding; conditions: antagonist radioligand
Sequence of Muscarinic M3 (h) (P20309 whole entry, looked up): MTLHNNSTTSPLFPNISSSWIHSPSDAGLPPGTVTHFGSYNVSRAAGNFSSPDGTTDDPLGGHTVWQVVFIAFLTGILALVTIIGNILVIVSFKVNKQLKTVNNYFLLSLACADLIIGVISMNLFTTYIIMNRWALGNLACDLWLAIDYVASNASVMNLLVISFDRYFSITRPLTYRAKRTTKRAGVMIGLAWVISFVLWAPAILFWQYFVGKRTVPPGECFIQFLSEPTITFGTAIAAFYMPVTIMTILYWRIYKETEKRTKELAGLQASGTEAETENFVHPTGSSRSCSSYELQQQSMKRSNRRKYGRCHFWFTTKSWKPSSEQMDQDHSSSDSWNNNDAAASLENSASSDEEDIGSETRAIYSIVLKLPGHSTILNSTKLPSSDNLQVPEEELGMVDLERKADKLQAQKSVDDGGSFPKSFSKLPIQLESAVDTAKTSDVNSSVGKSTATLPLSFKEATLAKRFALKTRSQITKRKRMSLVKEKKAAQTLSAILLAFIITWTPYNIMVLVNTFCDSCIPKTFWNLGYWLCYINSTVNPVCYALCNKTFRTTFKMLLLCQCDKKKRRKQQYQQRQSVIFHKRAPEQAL

Dopamine D1 (h) = Dopamine D1 (h) (Homo sapiens (Human), UniProt P21728); assay: as above; format: binding
Sequence of Dopamine D1 (h) (P21728 whole entry, looked up): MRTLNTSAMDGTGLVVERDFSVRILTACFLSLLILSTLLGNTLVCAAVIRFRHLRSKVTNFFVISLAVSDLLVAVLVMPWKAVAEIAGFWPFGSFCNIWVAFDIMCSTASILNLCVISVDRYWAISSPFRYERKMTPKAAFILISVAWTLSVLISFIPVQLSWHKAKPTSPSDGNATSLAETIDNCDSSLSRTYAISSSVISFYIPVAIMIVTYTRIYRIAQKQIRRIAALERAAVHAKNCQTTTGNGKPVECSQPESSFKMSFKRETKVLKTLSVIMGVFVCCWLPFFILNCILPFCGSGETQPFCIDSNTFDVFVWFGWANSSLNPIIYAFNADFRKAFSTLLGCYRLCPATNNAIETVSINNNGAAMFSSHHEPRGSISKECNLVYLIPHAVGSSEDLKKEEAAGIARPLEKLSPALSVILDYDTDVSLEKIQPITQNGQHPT

μ-opioid (h) = μ-opioid (h) (Homo sapiens (Human), UniProt P35372); assay: as above; format: binding
5-HT3 (h) = 5-HT3 (h) (Homo sapiens (Human), UniProt P46098); assay: as above; conditions: antagonist, read-out: binding at 10 μM
5-HT5a (h) = 5-HT5a (h) (Homo sapiens (Human), UniProt P47898); assay: as above; conditions: agonist, read-out: binding at 10 μM
Sequence of 5-HT5a (h) (P47898 whole entry, looked up): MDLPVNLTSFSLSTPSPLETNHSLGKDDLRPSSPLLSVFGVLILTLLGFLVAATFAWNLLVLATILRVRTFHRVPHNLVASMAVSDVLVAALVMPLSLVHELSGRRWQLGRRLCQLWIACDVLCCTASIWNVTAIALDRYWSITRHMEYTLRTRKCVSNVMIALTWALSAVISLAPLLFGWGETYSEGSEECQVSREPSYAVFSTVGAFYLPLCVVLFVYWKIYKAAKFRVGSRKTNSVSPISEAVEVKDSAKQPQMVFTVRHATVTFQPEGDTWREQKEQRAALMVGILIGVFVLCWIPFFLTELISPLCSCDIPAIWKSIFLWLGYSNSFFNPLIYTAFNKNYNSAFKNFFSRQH

Adenosine A1 (h) = Adenosine A1 (h) (Homo sapiens (Human), UniProt P30542); assay: as above; conditions: read-out: binding at 10 μM
Adenosine A3 (h) = Adenosine A3 (h) (Homo sapiens (Human), UniProt P0DMS8); assay: as above; conditions: read-out: binding at 10 μM
Adrenergic β1 (h) = Adrenergic β1 (h) (Homo sapiens (Human), UniProt P08588); assay: as above; conditions: read-out: binding at 10 μM
Angiotensin AT1 (h) = Angiotensin AT1 (h) (Homo sapiens (Human), UniProt P30556); assay: as above; conditions: read-out: binding at 10 μM
[1] = tested on: BZD (central) (rat cortex); assay: as above; format: binding
[2] = tested on: BB (nonselective) (rat cortex); assay: as above; format: binding
B2 (h) = B2 (h) (Homo sapiens (Human), UniProt P30411); assay: as above; conditions: read-out: binding at 10 μM
Cannabinoid CB1 (h) = Cannabinoid CB1 (h) (Homo sapiens (Human), UniProt P21554); assay: as above; format: binding
D4.4 (h) = D4.4 (h) (Homo sapiens (Human), UniProt P21917); assay: as above; conditions: read-out: binding at 10 μM
D5 (h) = D5 (h) (Homo sapiens (Human), UniProt P21918); assay: as above; conditions: read-out: binding at 10 μM
Galanin GAL2 (h) = Galanin GAL2 (h) (Homo sapiens (Human), UniProt O43603); assay: as above; conditions: read-out: binding at 10 μM
[3] = target: CXCR2 (Interleukin-8B) (h) (Homo sapiens (Human), UniProt P25025); assay: as above; conditions: read-out: binding at 10 μM
Sequence of CXCR2 (Interleukin-8B) (h) (P25025 whole entry, looked up): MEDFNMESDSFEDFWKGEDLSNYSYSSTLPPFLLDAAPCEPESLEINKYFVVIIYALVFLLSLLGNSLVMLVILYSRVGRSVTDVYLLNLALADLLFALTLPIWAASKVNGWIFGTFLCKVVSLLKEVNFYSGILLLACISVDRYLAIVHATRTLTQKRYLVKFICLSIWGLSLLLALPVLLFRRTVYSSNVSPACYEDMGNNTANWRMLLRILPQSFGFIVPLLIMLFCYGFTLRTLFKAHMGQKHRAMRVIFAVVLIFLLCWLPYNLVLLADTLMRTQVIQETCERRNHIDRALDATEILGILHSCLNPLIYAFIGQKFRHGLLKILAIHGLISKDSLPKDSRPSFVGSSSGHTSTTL

Histamine H2 (h) = Histamine H2 (h) (Homo sapiens (Human), UniProt P25021); assay: as above; conditions: read-out: binding at 10 μM
Melanocortin MC4 (h) = Melanocortin MC4 (h) (Homo sapiens (Human), UniProt P32245); assay: as above; conditions: read-out: binding at 10 μM
Sequence of Melanocortin MC4 (h) (P32245 whole entry, looked up): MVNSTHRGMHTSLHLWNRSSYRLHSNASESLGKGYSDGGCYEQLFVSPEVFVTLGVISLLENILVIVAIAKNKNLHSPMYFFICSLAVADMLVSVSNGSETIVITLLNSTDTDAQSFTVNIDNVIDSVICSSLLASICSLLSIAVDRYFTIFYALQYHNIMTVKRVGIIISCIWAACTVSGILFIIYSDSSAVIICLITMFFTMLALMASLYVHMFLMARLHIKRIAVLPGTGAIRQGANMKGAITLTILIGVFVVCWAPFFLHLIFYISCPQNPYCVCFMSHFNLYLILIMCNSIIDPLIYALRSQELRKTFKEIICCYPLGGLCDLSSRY

Melatonin MT1 (h) = Melatonin MT1 (h) (Homo sapiens (Human), UniProt P48039); assay: as above; conditions: read-out: binding at 10 μM
Muscarinic M2 (h) = Muscarinic M2 (h) (Homo sapiens (Human), UniProt P08172); assay: as above; conditions: read-out: binding at 10 μM
Tachykinin NK2 (h) = Tachykinin NK2 (h) (Homo sapiens (Human), UniProt P21452); assay: as above; conditions: read-out: binding at 10 μM
Sequence of Tachykinin NK2 (h) (P21452 whole entry, looked up): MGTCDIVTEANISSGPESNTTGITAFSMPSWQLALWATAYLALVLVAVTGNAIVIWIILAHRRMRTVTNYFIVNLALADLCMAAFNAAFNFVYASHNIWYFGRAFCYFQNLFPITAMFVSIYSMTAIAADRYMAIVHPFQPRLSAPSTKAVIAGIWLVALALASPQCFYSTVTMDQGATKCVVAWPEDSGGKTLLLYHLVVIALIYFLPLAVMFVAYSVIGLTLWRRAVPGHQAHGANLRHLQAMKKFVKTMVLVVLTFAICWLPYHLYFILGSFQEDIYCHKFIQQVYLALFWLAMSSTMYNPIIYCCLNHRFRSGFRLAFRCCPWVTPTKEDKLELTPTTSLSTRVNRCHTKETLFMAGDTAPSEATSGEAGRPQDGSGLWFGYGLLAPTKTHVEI

Neuropeptide Y Y2 (h) = Neuropeptide Y Y2 (h) (Homo sapiens (Human), UniProt P49146); assay: as above; conditions: read-out: binding at 10 μM
[4] = target: PAC1 (Pituitary adenylate cyclase-activating polypeptide, PACAP) (h) (Homo sapiens (Human), UniProt P41586); assay: as above; conditions: read-out: binding at 10 μM
PPARγ (h) = PPARγ (h) (Homo sapiens (Human), UniProt P37231); assay: as above; conditions: read-out: binding at 10 μM
Sequence of PPARγ (h) (P37231 whole entry, looked up): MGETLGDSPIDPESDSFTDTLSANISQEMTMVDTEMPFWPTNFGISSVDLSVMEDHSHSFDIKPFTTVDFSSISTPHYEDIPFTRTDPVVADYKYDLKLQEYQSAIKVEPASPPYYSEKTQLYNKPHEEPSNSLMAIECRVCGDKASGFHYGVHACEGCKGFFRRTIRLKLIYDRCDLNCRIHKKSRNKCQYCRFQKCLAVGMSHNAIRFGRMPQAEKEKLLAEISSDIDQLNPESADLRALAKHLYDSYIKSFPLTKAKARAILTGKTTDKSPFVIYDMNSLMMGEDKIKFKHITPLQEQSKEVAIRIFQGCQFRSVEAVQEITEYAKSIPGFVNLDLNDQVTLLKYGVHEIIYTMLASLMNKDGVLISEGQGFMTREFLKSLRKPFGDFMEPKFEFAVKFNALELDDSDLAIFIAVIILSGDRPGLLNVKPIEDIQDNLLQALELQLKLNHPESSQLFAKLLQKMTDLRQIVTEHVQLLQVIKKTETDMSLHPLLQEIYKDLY

Prostaglandin EP2 (h) = Prostaglandin EP2 (h) (Homo sapiens (Human), UniProt P43116); assay: as above; conditions: read-out: binding at 10 μM
Prostaglandin EP4 (h) = Prostaglandin EP4 (h) (Homo sapiens (Human), UniProt P35408); assay: as above; conditions: read-out: binding at 10 μM
[5] = tested on: P2X (ATP) (rat urinary bladder); assay: as above; format: binding
P2Y (ATP) (rat cortex) = assay: as above; format: binding
Glucocorticoid GR (h) = Glucocorticoid GR (h) (Homo sapiens (Human), UniProt P04150); assay: as above; conditions: read-out: binding at 10 μM
Sequence of Glucocorticoid GR (h) (P04150 whole entry, looked up): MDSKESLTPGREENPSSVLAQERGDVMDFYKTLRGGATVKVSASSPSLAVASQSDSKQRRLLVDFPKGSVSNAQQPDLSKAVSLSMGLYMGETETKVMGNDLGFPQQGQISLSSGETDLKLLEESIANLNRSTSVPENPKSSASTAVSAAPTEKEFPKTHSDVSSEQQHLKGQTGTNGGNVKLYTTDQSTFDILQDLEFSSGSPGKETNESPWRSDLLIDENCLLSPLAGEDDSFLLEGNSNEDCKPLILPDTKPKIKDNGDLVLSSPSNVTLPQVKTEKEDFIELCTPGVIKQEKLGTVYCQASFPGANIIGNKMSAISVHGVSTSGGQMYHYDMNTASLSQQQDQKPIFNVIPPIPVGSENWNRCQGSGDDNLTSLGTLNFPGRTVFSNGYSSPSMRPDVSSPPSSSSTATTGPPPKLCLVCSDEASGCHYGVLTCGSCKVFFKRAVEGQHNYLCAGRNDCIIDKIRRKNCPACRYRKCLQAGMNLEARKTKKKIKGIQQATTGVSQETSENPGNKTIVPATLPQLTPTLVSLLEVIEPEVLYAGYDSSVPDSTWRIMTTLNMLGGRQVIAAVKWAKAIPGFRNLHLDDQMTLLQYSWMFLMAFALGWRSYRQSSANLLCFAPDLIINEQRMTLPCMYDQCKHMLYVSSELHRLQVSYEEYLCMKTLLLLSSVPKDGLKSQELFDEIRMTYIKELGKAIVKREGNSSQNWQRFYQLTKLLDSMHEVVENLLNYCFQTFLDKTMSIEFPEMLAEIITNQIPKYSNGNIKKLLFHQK

Vasopressin V1a (h) = Vasopressin V1a (h) (Homo sapiens (Human), UniProt P37288); assay: as above; conditions: read-out: binding at 10 μM
Sequence of Vasopressin V1a (h) (P37288 whole entry, looked up): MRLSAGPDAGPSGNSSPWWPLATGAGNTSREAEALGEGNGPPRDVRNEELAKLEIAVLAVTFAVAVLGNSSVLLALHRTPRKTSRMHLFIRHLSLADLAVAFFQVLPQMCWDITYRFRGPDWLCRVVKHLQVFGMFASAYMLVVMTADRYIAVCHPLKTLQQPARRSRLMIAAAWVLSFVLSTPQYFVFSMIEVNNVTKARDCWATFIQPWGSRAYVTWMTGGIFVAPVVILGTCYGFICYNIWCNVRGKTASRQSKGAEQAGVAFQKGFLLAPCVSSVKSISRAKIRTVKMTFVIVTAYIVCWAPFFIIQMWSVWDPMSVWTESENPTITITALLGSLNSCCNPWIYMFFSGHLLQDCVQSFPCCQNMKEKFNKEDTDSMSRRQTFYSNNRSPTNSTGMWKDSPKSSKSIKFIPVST

[6] = tested on: Chloride Cl— channel (GABA-gated) (rat cortex); assay: as above; format: binding
[7] = read-out: inhibition of radioligand bound at 10 μM

Sequence of human 5-HT2B receptor (P41595 whole entry, looked up): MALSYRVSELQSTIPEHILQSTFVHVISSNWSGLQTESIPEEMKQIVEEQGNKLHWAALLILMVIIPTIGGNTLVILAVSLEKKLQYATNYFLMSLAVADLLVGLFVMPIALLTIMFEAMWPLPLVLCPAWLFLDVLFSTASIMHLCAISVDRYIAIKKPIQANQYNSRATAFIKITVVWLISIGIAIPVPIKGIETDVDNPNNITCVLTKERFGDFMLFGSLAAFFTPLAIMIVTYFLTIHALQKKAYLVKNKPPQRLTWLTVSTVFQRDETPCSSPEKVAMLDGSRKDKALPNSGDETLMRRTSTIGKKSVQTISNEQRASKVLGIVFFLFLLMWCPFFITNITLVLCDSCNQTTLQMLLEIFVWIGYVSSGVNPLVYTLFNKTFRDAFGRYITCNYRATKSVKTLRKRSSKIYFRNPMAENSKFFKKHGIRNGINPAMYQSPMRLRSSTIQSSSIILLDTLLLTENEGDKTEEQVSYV

| SMILES | inhibition at 10 µM (Muscarinic M5 (h)) [%] | inhibition at 10 µM (5-HT1B (h)) [%] | inhibition at 10 µM (Muscarinic M3 (h)) [%] | inhibition at 10 µM (5-HT3 (h)) [%] | inhibition at 10 µM (5-HT5a (h)) [%] | inhibition at 10 µM (Adenosine A1 (h)) [%] | inhibition at 10 µM (Adenosine A3 (h)) [%] | inhibition at 10 µM (Adrenergic β1 (h)) [%] | inhibition at 10 µM (Angiotensin AT1 (h)) [%] | binding at 10 μM [1] | binding at 10 μM [2] | inhibition at 10 µM (B2 (h)) [%] | inhibition at 10 µM (Cannabinoid CB1 (h); read-out: binding at 10 μM) [%] | inhibition at 10 µM (Cannabinoid CB1 (h); [7]) [%] | inhibition at 10 µM (D4.4 (h)) [%] | inhibition at 10 µM (D5 (h)) [%] | inhibition at 10 µM (Galanin GAL2 (h)) [%] | inhibition at 10 µM [3] [%] | inhibition at 10 µM (Histamine H2 (h)) [%] | inhibition at 10 µM (Melanocortin MC4 (h)) [%] | also measured |
| --- | --- | --- | --- | --- | --- | --- | --- | --- | --- | --- | --- | --- | --- | --- | --- | --- | --- | --- | --- | --- | --- |
| COc1cc(CC(C)N)c(OC)cc1I (racemic) [DOI, (±)-2,5-dimethoxy-4-iodoamphetamine, reference compound] | 62.6 | 52.7 | 60.4 | < 50 | < 50 | < 50 | < 50 | < 50 | < 50 | NB (inhibited less than 50% of radioligand bound to them, and therefore it can be concluded they do not bind (“no binding,” NB)) | NB (inhibited less than 50% of radioligand bound to them, and therefore it can be concluded they do not bind (“no binding,” NB)) | < 50 | < 50 | < 50 | < 50 | < 50 | < 50 | < 50 | < 50 | < 50 | Ki (human 5-HT2B receptor): 1.5 nM; inhibition at 10 µM (Dopamine D1 (h); read-out: binding at 10 μM): < 50%; inhibition at 10 µM (μ-opioid (h); agonist radioligand, read-out: inhibition at 10 μM): 65%; inhibition at 10 µM (Melatonin MT1 (h)): < 50%; inhibition at 10 µM (Muscarinic M2 (h)): < 50%; inhibition at 10 µM (Tachykinin NK2 (h)): < 50%; inhibition at 10 µM (Neuropeptide Y Y2 (h)): < 50%; inhibition at 10 µM [4]: < 50%; inhibition at 10 µM (PPARγ (h)): < 50%; inhibition at 10 µM (Prostaglandin EP2 (h)): < 50%; inhibition at 10 µM (Prostaglandin EP4 (h)): < 50%; binding at 10 μM [5]: NB (inhibited less than 50% of radioligand bound to them, and therefore it can be concluded they do not bind (“no binding,” NB)); binding at 10 μM (P2Y (ATP) (rat cortex)): NB (inhibited less than 50% of radioligand bound to them, and therefore it can be concluded they do not bind (“no binding,” NB)); inhibition at 10 µM (Glucocorticoid GR (h)): < 50%; inhibition at 10 µM (Vasopressin V1a (h)): < 50%; Decreased binding [6]: Decreased binding by ~38% |
| COc1cc(SC(F)(F)F)c(OC)cc1CCN [Compound I-1, 2-(2,5-dimethoxy-4-((trifluoromethyl)thio)phenyl)ethan-1-amine] | > 80 | > 80 | 79 | < 50 | < 50 | < 50 | < 50 | < 50 | < 50 | NB (inhibited less than 50% of radioligand bound to them, and therefore it can be concluded they do not bind (“no binding,” NB)) | NB (inhibited less than 50% of radioligand bound to them, and therefore it can be concluded they do not bind (“no binding,” NB)) | < 50 | < 50 | < 50 | < 50 | < 50 | < 50 | < 50 | < 50 | < 50 | inhibition at 10 µM (human 5-HT2B receptor): > 80%; Ki (human 5-HT2B receptor; radioligand [125I](±)DOI, read-out: 5-HT2B, Ki): 6.7 nM; inhibition at 10 µM (Dopamine D1 (h); antagonist radioligand, read-out: inhibition at 10 μM): 57%; inhibition at 10 µM (μ-opioid (h); read-out: binding at 10 μM): < 50%; inhibition at 10 µM (Melatonin MT1 (h)): < 50%; inhibition at 10 µM (Muscarinic M2 (h)): < 50%; inhibition at 10 µM (Tachykinin NK2 (h)): < 50%; inhibition at 10 µM (Neuropeptide Y Y2 (h)): < 50%; inhibition at 10 µM [4]: < 50%; inhibition at 10 µM (PPARγ (h)): < 50%; inhibition at 10 µM (Prostaglandin EP2 (h)): < 50%; inhibition at 10 µM (Prostaglandin EP4 (h)): < 50%; binding at 10 μM [5]: NB (inhibited less than 50% of radioligand bound to them, and therefore it can be concluded they do not bind (“no binding,” NB)); binding at 10 μM (P2Y (ATP) (rat cortex)): NB (inhibited less than 50% of radioligand bound to them, and therefore it can be concluded they do not bind (“no binding,” NB)); inhibition at 10 µM (Glucocorticoid GR (h)): < 50%; inhibition at 10 µM (Vasopressin V1a (h)): < 50%; Decreased binding [6]: Decreased binding by ~48% |
